Results on seven molecules are retold here after patent US20170342451A1, “BIOSYNTHESIS OF PACLITAXEL INTERMEDIATE” (Board of Trustees of Michigan State University, priority 2012, published 2017).

One series has as its system 4-Chlorobenzoate-CL. As to conditions: cited from earlier work.
In another series the test system is Benzoate-CL. The note with it: cited from earlier work.
The next series deals with Phenylacetate-CL. As to conditions: cited from earlier work.
A further series addresses T1, TycA (Brevibacillus parabrevis, UniProt P09095).
T1 construct: this wild-type tycA cDNA encoding the A-, T-, and E-domains was subcloned into a pSU18 vector; made in house; host or cells: Escherichia coli BL21(DE3)
T1 sequence (P09095 with tags, fused parts or gaps): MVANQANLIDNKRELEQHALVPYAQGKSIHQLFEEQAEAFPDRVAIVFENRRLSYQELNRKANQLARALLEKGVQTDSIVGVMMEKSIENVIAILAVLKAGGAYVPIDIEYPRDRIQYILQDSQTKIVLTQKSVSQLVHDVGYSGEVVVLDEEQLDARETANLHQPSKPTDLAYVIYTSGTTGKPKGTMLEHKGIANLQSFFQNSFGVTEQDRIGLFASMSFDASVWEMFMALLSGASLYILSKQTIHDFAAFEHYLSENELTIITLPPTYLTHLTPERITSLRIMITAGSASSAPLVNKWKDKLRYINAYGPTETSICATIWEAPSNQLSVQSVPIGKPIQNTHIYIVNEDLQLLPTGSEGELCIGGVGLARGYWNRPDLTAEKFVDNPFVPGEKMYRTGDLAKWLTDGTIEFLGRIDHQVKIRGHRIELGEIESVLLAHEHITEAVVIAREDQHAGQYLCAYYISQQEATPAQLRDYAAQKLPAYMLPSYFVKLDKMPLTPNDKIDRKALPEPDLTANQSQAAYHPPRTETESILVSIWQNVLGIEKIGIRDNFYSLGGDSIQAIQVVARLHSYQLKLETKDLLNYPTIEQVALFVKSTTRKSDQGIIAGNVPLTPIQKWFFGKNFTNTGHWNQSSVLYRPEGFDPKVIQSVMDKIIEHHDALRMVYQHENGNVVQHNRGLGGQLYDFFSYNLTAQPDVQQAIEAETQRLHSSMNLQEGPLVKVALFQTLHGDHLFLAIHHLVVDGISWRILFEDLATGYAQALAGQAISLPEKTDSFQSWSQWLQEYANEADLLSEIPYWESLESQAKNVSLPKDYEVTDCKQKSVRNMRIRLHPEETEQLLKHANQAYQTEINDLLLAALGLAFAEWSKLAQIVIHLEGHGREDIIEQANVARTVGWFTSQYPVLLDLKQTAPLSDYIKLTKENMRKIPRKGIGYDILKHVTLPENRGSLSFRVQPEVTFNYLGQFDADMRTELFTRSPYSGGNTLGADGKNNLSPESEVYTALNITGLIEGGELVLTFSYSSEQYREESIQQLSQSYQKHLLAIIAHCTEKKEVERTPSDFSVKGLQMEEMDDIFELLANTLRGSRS
Kind of series: CoA ligase reaction kinetics, TycA. In kind it is biochemical, Brevibacillus brevis. Here is the method:
Under steady-state conditions, (S)-α-phenylalanine, (R)-β-phenylalanine, and (2R,3S)-phenylisoserine at 5, 10, 20, 40, 80, 160, 250, 500, 1000 and 2000 μM were separately incubated with TycA or TycA-S563A (20 μg) for 30 min. At the end of each reaction, and prior to mass spectrometry analysis, acetyl CoA (1 μM) was added as the internal standard to each sample to correct for variations of the analyte. The products of the enzyme-catalyzed reaction were quantified by a liquid chromatography multiple reaction monitoring (LC-ESI-MRM) mass spectrometry technique (Anderson & Hunter, Mol. Cell. Proteomics 5: 573-588 (2006)) on the Quattro-Premier Electro-Spray Mass Spectrometer coupled with Acquity® UPLC system fitted with a C18 Ascentis Express column (2.5×50 mm, 2.7 μm) at 30° C. An aliquot (5 μL) of each sample was loaded onto the column and the analytes were eluted with a solvent gradient of acetonitrile (Solvent A) in 0.05% triethylamine in distilled water (Solvent B). Elution was held at 2.5% Solvent A for 3.17 min, increased to 100% Solvent A over 5 sec with a 2-min hold, and then returned to 2.5% Solvent A over 5 sec with a 50-sec hold. The flow rate employed was 0.4 mL/min. The effluent from the chromatography column was directed to the mass spectrometer where the first quadrupole mass analyzer (in negative ion mode) was set to select for the molecular ion of a biosynthesized acyl CoA product. The selected ion was then directed to a collision gas chamber where the collision energy was optimized to maximize the abundance of a single signature fragment ion (m/z 408, characteristic of acyl CoA thioesters) resolved in the second quadrupole mass analyzer by the MRM method. The peak area under the curve of fragment ion m/z 408 for each biosynthetic phenylpropionyl CoA thioester was converted to concentration by comparing the peak area of the same ion produced by authentic CoA (at 0.05, 0.1, 0.2, 0.4, 0.8, 1.6, 3.2, 6.4, 12.5, 25, 50, 100 μM) using linear regression analysis.
The KM values of TycA and TycA-S563A for CoA were assessed by incubating each enzyme separately with (S)-α-phenylalanine (1 mM), MgCl2 (3 mM), ATP (1 mM), and CoA at 0.05, 0.1, 0.2, 0.4, 0.8, 1.6, 3.2, 6.4, 12.8 and 25.6 mM at 31° C. for 20 min. At the end of each reaction and prior to mass spectrometry analysis, acetyl CoA (1 μM) was added as the internal standard to each sample to correct for variations of the analyte. The products of the enzyme-catalyzed reaction were quantified by LC-ESI-MRM, and the monitored fragment ion (m/z 408) derived from the CoA moiety of the thioester analytes in the effluent was quantified identically to the procedure described earlier herein.

For the next series, the system named is bacterial CoA Ligases. As to conditions: literature range; cited from earlier work.
In the next series the target is Propionyl-CL (Salmonella typhimurium, UniProt P55912). As to conditions: cited from earlier work.
Chain of Propionyl-CL (P55912 whole entry): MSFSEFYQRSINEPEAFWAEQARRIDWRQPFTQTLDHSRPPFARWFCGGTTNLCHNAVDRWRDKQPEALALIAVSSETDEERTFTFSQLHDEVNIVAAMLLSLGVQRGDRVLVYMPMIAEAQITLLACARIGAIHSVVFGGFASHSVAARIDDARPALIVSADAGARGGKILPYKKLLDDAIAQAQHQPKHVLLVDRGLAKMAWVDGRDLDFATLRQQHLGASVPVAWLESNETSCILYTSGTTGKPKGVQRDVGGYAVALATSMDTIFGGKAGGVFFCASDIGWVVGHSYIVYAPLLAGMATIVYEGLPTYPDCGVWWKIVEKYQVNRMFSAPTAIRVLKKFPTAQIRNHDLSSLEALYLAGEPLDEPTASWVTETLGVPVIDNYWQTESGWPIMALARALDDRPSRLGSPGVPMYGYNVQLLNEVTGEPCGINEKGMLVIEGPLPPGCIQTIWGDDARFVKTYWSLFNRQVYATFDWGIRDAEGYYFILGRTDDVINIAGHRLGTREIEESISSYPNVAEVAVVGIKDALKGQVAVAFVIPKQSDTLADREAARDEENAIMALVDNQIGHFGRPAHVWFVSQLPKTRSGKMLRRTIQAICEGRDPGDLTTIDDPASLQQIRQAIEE
Series [1] deals with CC(C)(COP(=O)(O)OP(=O)(O)OC[C@H]1O[C@@H](n2cnc3c(N)ncnc32)[C@H](O)[C@@H]1OP(=O)(O)O)[C@@H](O)C(=O)NCCC(=O)NCCS. Kind of series: purified protein, by the assay type. As to conditions: other: TycA-S563A, CoA 1 mM, ATP 1 mM, MgCl2 3 mM, 31° C., CoA with (S)-α-Phe as cosubstrate, pH 8.0.
The subject of series [2] is C[C@@](N)(C(=O)O)c1ccccc1. Kind of series: purified protein, by the assay type.
Another series has as its system N[C@H](CC(=O)O)c1ccccc1. Kind of series: purified protein, by the assay type.
A further series concerns Cinnamate-CL. As to conditions: cited from earlier work.
The subject of series [3] is mutation of phenylacetate CoA Ligase. As to conditions: mutated enzyme; reaction to make β-Phenylpropanyl CoA; reduced from low mM; cited from earlier work.
Substrate in series [4]: CC(=O)NCCS
Kind of series: N-acetylcysteamine ligase reaction kinetics, TycA. The note with it: other: TycA with NAC; NAC with (S)-α-Phe as cosubstrate. In kind it is biochemical, Brevibacillus brevis.

Setting [5] is: other: TycA-S563A with NAC, NAC with (S)-α-Phe as cosubstrate.
Where [6] appears, read: other: TycA-S563A, CoA 1 mM, ATP 1 mM, MgCl2 3 mM, 31° C., CoA with (S)-α-Phe as cosubstrate, pH 8.0.

Usually Km stands for the concentration of substrate that gives half-maximal velocity. In general, kcat refers to the number of substrate molecules converted per active site and unit of time at saturation. Consider `CC(C)(COP(=O)(O)OP(=O)(O)OC[C@H]1O[C@@H](n2cnc3c(N)ncnc32)[C@H](O)[C@@H]1OP(=O)(O)O)[C@@H](O)C(=O)NCCC(=O)NCCS` [CoA], for which the Km with 4-Chlorobenzoate-CL was 310 µM; in the series on Benzoate-CL, 100 µM; in the series with Phenylacetate-CL, 940 µM; on TycA (TycA, CoA 1 mM, ATP 1 mM, MgCl2 3 mM, 31° C., CoA with (S)-α-Phe as cosubstrate), 1980 ± 175 µM; in the series with bacterial CoA Ligases, 100 to 940 µM; on Propionyl-CL it was 215 µM. Further, the kcat with 4-Chlorobenzoate-CL was 9.3 s⁻¹; at Propionyl-CL, 42 s⁻¹. For the same molecule, on TycA (TycA, turnover with CoA at apparent saturation, CoA with (S)-α-Phe as cosubstrate), the “kcat^CoA” value was determined as 0.0125 ± 0.00083 s⁻¹. Moreover, the “higher KM of TycA compared to that of TycA-S563A” value at TycA (dilution series of CoA with 1 mM (S)-α-Phe) is around 2.5 fold.

As to “TycA-S563A (Brevibacillus parabrevis; S563A)”, the Km in series [1] is 804 ± 26 µM; in series [2] (setting [5]) it was 37.8 ± 1.6 µM; in series [2] (setting [6]), 33.9 ± 4.0 µM; in the series on N[C@H](CC(=O)O)c1ccccc1 (setting [5]), 58.9 ± 6.4 µM; in the series on N[C@H](CC(=O)O)c1ccccc1 (setting [6]) it was 62.3 ± 1.0 µM. Besides, the kcat came out at 0.015 ± 0.0013 s⁻¹ in series [1], 0.003333 ± 3.33e-05 s⁻¹ in series [2] (setting [5]) and 0.0004 ± 1.67e-05 s⁻¹ in the series on N[C@H](CC(=O)O)c1ccccc1 (setting [5]).

With `O=C(O)c1ccccc1` [benzoate], in the series with Benzoate-CL, the Km is 11 µM and the kcat was 26,000 min^−1.

In the case of `O=C(O)/C=C/c1ccccc1` [Cinnamate], in the series with Cinnamate-CL, the Km is 190 µM and the kcat is 0.475 s⁻¹.

Turning to `NC(CC(=O)O)c1ccccc1` (stereo not drawn) [β-Phe], the Km in [3] is 0.068 mM.

As to `CCC(=O)O` [propionate], at Propionyl-CL, the Km was 20 µM and the kcat was 33 s⁻¹.

B1: TycA (Brevibacillus parabrevis) (protein)
chain: T1 sequence (P09095 with tags, fused parts or gaps)
notes: this wild-type tycA cDNA encoding the A-, T-, and E-domains was subcloned into a pSU18 vector; made in house; host or cells: Escherichia coli BL21(DE3)
In the case of B1, in series [4], the Km was 153 ± 22 µM and the kcat amounted to 0.0015 ± 0.000167 s⁻¹.
